Data: patent US10206394B2, “Herbicidal compounds” (Syngenta Participations AG, priority 2014, dated 2019)
Where two headings read alike, the source gives them in different places.

Tests used:
Experiment in all cases: Glasshouse assay for herbicidal activity (pre- and post-emergence), percentage phytotoxicity
Format in all cases: in vivo
Avena fatua (AVEFA) = settings: Avena fatua, rate 250 g/ha
Summary of the method: (§1)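 Seeds were sown in standard soil in pots and grown one day (pre-emergence) or about 12 days (post-emergence) before herbicide application. Plants were kept at 24/18 °C (warm-climate) or 20/16 °C (cool-climate) day/night, 16 h light, 65% humidity, watered twice daily, and damage was scored visually at 15 DAA (POST) or 20 DAA (PRE).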

Lolium perenne (LOLPE) = settings: Lolium perenne, rate 250 g/ha
Summary of the method: as §1

[1] = system: Alopecurus myosuroides (ALOMY); settings: Alopecurus myosuroides, rate 250 g/ha
Summary of the method: as §1

[2] = system: Echinochloa crus-galli (ECHCG); settings: Echinochloa crus-galli, rate 250 g/ha
Summary of the method: as §1

[3] = post-emergence, 360 h, POST-emergence, visual score 15 DAA (100%=total damage, 0%=no damage), read-out: Post-emergence herbicidal activity (percentage phytotoxicity) AVEFA POST
[4] = pre-emergence, 480 h, PRE-emergence, visual score 20 DAA (100%=total damage, 0%=no damage), read-out: Pre-emergence herbicidal activity (percentage phytotoxicity) AVEFA PRE
[5] = post-emergence, 360 h, POST-emergence, visual score 15 DAA (100%=total damage, 0%=no damage), read-out: Post-emergence herbicidal activity (percentage phytotoxicity) LOLPE POST
[6] = pre-emergence, 480 h, PRE-emergence, visual score 20 DAA (100%=total damage, 0%=no damage), read-out: Pre-emergence herbicidal activity (percentage phytotoxicity) LOLPE PRE
[7] = post-emergence, 360 h, POST-emergence, visual score 15 DAA (100%=total damage, 0%=no damage), read-out: Post-emergence herbicidal activity (percentage phytotoxicity) ALOMY POST
[8] = pre-emergence, 480 h, PRE-emergence, visual score 20 DAA (100%=total damage, 0%=no damage), read-out: Pre-emergence herbicidal activity (percentage phytotoxicity) ALOMY PRE
[9] = post-emergence, 360 h, POST-emergence, visual score 15 DAA (100%=total damage, 0%=no damage), read-out: Post-emergence herbicidal activity (percentage phytotoxicity) ECHCG POST
[10] = pre-emergence, 480 h, PRE-emergence, visual score 20 DAA (100%=total damage, 0%=no damage), read-out: Pre-emergence herbicidal activity (percentage phytotoxicity) ECHCG PRE

Row | Structure (SMILES) | pest or weed control at 250 g/ha (Avena fatua (AVEFA); [3]) | pest or weed control at 250 g/ha (Avena fatua (AVEFA); [4]) | pest or weed control at 250 g/ha (Lolium perenne (LOLPE); [5]) | pest or weed control at 250 g/ha (Lolium perenne (LOLPE); [6]) | pest or weed control at 250 g/ha [1, 7] | pest or weed control at 250 g/ha [1, 8] | pest or weed control at 250 g/ha [2, 9] | pest or weed control at 250 g/ha [2, 10]
1 | Cc1cc(-c2ncc(F)cc2F)cc(C)c1C1C(=O)CC(CC(=O)NC2CC2F)C1=O (stereo not drawn) [Compound B289] | 100% | 100% | 100% | 100% | 100% | 100% | 100% | 100%
2 | Cc1cc(-c2ncc(F)cc2F)cc(C)c1C1C(=O)CC(CC(=O)NC/C=C/Cl)C1=O (stereo not drawn) [Compound B290] | 100% | 100% | 100% | 100% | 100% | 100% | 100% | 100%
3 | C/C=C/CNC(=O)CC1CC(=O)C(c2c(C)cc(-c3ncc(F)cc3F)cc2C)C1=O (stereo not drawn) [Compound B291] | 100% | 90% | 90% | 100% | 90% | 100% | 100% | 100%
4 | Cc1cc(-c2ncc(F)cn2)cc(C)c1C1C(=O)CC(CC(=O)NC2CC2(F)F)C1=O (stereo not drawn) [Compound B292] | 100% | 90% | 90% | 70% | 100% | 100% | 100% | 100%
5 | Cc1cc(-c2ncc(F)cn2)cc(C)c1C1C(=O)CC(CC(=O)NC2CC2F)C1=O (stereo not drawn) [Compound B293] | 100% | 60% | 90% | 90% | 100% | 90% | 100% | 90%
6 | C=C(F)CNC(=O)CC1CC(=O)C(c2c(C)cc(-c3ncc(F)cn3)cc2C)C1=O (stereo not drawn) [Compound B294] | 100% | 100% | 100% | 100% | 100% | 90% | 100% | 100%
7 | Cc1cc(-c2ccc(C#N)cn2)cc(C)c1C1C(=O)CC(CC(=O)NCc2cccc(Cl)c2)C1=O (stereo not drawn) [Compound B295] | 100% | 60% | 90% | 90% | 90% | 80% | 100% | 90%
8 | Cc1cc(-c2ccc(Br)cn2)cc(C)c1C1C(=O)CC(CC(=O)NC(C)C)C1=O (stereo not drawn) [Compound B296] | 100% | 90% | 100% | 90% | 100% | 90% | 100% | 100%
9 | C#CC(C)(C)NC(=O)CC1CC(=O)C(c2c(C)cc(-c3ccc(Br)cn3)cc2C)C1=O (stereo not drawn) [Compound B297] | 100% | 90% | 100% | 90% | 100% | 90% | 100% | 100%
